From patent publication US12338237B2, “Derivatives having 1,2,3,4-tetrahydronaphthalene moiety or pharmaceutically acceptable salt thereof and pharmaceutical compositions comprising the same” (YUHAN CORPORATION, priority 2019, dated 2025)

What was measured:
[1] = target: glucosylceramide synthase (GCS) (Homo sapiens (Human), UniProt Q16739); experiment: Evaluation of inhibitory activities against GCS (enzyme reaction with A549 cell lysate, NBD C6-ceramide, HPLC fluorescence); assay type: biochemical; details: GCS activity in A549 cell lysate, 37° C. for 90 minutes
glucosylceramide synthase (GCS), sequence (Q16739 whole entry, looked up): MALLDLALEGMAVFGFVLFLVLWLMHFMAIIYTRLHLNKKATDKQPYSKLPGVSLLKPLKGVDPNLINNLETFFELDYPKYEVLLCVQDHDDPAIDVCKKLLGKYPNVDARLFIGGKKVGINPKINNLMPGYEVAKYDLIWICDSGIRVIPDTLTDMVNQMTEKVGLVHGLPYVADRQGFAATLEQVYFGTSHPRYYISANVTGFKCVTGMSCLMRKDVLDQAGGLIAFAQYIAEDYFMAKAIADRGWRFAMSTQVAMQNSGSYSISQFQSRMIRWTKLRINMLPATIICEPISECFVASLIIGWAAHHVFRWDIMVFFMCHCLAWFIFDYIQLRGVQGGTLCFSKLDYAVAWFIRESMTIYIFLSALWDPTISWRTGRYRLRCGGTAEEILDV
How it was run: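 Lysate of A549 cells in 50 mM HEPES pH 7.3 incubated with test compound and NBD C6-ceramide at 37 °C for 90 min; lipids extracted with chloroform/methanol and GlcCer and ceramide peaks quantified by HPLC fluorescence. Activity from GlcCer area fraction, normalised between DMSO and ibiglustat controls.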

GM1 production = experiment: cells; assay type: cell-based; details: Homo sapiens, Jurkat, 72 h

Row | Compound | IC50 [1] [nM] | IC50 (GM1 production) [nM]
1 | COc1cccc(OC)c1-c1ccc2c(c1)CCC(C)(C)C2NC(=O)O[C@@H]1CN2CCC1CC2 (stereo partly drawn) [Example 136, (S)-quinuclidin-3-yl (6-(2,6-dimethoxyphenyl)-2,2-dimethyl-1,2,3,4-tetrahydronaphthalen-1-yl)carbamate] | 9.22 | 21.2
2 | O=C(NC1CCCc2ccc(-c3cccnc3)cc21)O[C@@H]1CN2CCC1CC2 (stereo partly drawn) [Example 73, (S)-quinuclidin-3-yl (7-(pyridin-3-yl)-1,2,3,4-tetrahydronaphthalen-1-yl)carbamate] | 359 | 587
3 | O=C(NC1c2ccc(-c3cccc(C(F)(F)F)c3)cc2CCC12CC2)O[C@@H]1CN2CCC1CC2 (stereo partly drawn) [Example 192, (S)-quinuclidin-3-yl (6′-(3-(trifluoromethyl)phenyl)-3′,4′-dihydro-1′H-spiro[cyclopropane-1,2′-naphthalen]-1′-yl)carbamate] | 12.9 | 14
4 | O=C(NC1CCCc2cc(-c3ccc4c(c3)OCC4)ccc21)O[C@@H]1CN2CCC1CC2 (stereo partly drawn) [Example 44, (S)-quinuclidin-3-yl (6-(2,3-dihydrobenzofuran-6-yl)-1,2,3,4-tetrahydronaphthalen-1-yl)carbamate] | 7.59 | 480
5 | O=C(NC1CCCc2cc(-c3cccc(F)c3)ccc21)O[C@@H]1CN2CCC1CC2 (stereo partly drawn) [Example 5, (S)-quinuclidin-3-yl (6-(3-fluorophenyl)-1,2,3,4-tetrahydronaphthalen-1-yl)carbamate] | 0.989 | 27.1
6 | CCc1ccc(-c2ccc3c(c2)CCC2(CC2)C3NC(=O)O[C@@H]2CN3CCC2CC3)cc1 (stereo partly drawn) [Example 221, (S)-quinuclidin-3-yl (6′-(4-ethylphenyl)-3′,4′-dihydro-1′H-spiro[cyclopropane-1,2′-naphthalen]-1′-yl)carbamate] | 2.01 | 18.8
7 | O=C(NC1c2cc(-c3ccccc3C(F)(F)F)ccc2CCC12CC2)O[C@@H]1CN2CCC1CC2 (stereo partly drawn) [Example 181, (S)-quinuclidin-3-yl (7′-(2-(trifluoromethyl)phenyl)-3′,4′-dihydro-1′H-spiro[cyclopropane-1,2′-naphthalen]-1′-yl)carbamate] | 12.7 | 91.7
8 | COc1cccc(-c2ccc3c(c2)CCCC3NC(=O)O[C@@H]2CN3CCC2CC3)c1 (stereo partly drawn) [Example 47, (S)-quinuclidin-3-yl (6-(3-methoxyphenyl)-1,2,3,4-tetrahydronaphthalen-1-yl)carbamate] | 2.52 | 433
9 | O=C(NC1CCCc2ccc(-c3ccc(F)c(F)c3F)cc21)O[C@@H]1CN2CCC1CC2 (stereo partly drawn) [Example 69, (S)-quinuclidin-3-yl (7-(2,3,4-trifluorophenyl)-1,2,3,4-tetrahydronaphthalen-1-yl)carbamate] | 40.5 | 220
10 | O=C(NC1CCCc2cc(-c3cc(F)cc(F)c3)ccc21)O[C@@H]1CN2CCC1CC2 (stereo partly drawn) [Example 17, (S)-quinuclidin-3-yl (6-(3,5-difluorophenyl)-1,2,3,4-tetrahydronaphthalen-1-yl)carbamate] | 5.75 | 37
11 | COCCOc1cccc(-c2ccc3c(c2)CCC(C)(C)C3NC(=O)O[C@@H]2CN3CCC2CC3)c1 (stereo partly drawn) [Example 111, (S)-quinuclidin-3-yl (6-(3-(2-methoxyethoxy)phenyl)-2,2-dimethyl-1,2,3,4-tetrahydronaphthalen-1-yl)carbamate] | 2.36 | 1.84
12 | COCOc1cccc(-c2ccc3c(c2)CCC2(CC2)C3NC(=O)O[C@@H]2CN3CCC2CC3)c1 (stereo partly drawn) [Example 198, (S)-quinuclidin-3-yl (6′-(3-(methoxymethoxy)phenyl)-3′,4′-dihydro-1′H-spiro[cyclopropane-1,2′-naphthalen]-1′-yl)carbamate] | 5.17 | 8.68
13 | CC1(C)CCc2cc(-c3ccc(Cl)c(Cl)c3)ccc2C1NC(=O)O[C@@H]1CN2CCC1CC2 (stereo partly drawn) [Example 106, (S)-quinuclidin-3-yl (6-(3,4-dichlorophenyl)-2,2-dimethyl-1,2,3,4-tetrahydronaphthalen-1-yl)carbamate] | 4.05 | 3.33
